Measured values: publication PMC5788402, “Impact of Target Warhead and Linkage Vector on Inducing Protein Degradation: Comparison of Bromodomain and Extra-Terminal (BET) Degraders Derived from Triazolodiazepine (JQ1) and Tetrahydroquinoline (I-BET726) BET Inhibitor Scaffolds” (Journal of Medicinal Chemistry, 2017)

Columns and labels:
Brd4 = target: T1, Brd4 (Homo sapiens, UniProt O60885); assay: Brd4 depletion in HL60 (immunoblot); assay type: cell-based
T1 construct: endogenous in cells; host or cells: MV4;11; HL60

Brd4^BD2 = Brd4^BD2 (Homo sapiens, UniProt O60885); assay: ITC binary titration, Brd4^BD2 into PROTAC; assay type: binding; conditions: Brd4^BD2 in syringe, PROTAC in cell
[1] = target: VHL-EloC-EloB protein (VCB) (Homo sapiens, UniProt P40337); assay: ITC binary titration, VCB into PROTAC; assay type: binding; conditions: VCB in syringe, PROTAC in cell
[2] = target: VCB / Brd4^BD2 ternary complex (Homo sapiens, UniProt O60885+P40337); assay: ITC ternary titration, VCB into Brd4^BD2–PROTAC complex; assay type: binding
[3] = ternary, VCB in syringe, Brd4^BD2–PROTAC in cell

Compound	Brd4 depletion (%) HL60 (Brd4)	stoichiometry N (Brd4^BD2)	ΔG (Brd4^BD2)	ΔH (Brd4^BD2)	stoichiometry N [1]	ΔG [1]	ΔH [1]	–TΔS [1]	α ([2]; cooperativity, ratio between binary and ternary Kd, Brd4^BD2)	cooperativity (α) Brd4–BD2 ([2]; ternary complex formation with VCB and Brd4^BD2, as tabulated in Table 2)	ΔpKd ± uncertainty ([2]; ternary vs binary, Brd4^BD2)	stoichiometry N [2, 3]	ΔG [2, 3]	ΔH [2, 3]	–TΔS [2, 3]
Cc1sc2c(c1C)C(c1ccc(Cl)cc1)=N[C@@H](CC(=O)OC(C)(C)C)c1nnc(C)n1-2 [compound 3]	–243/20%	–	–	–	–	–	–	–	–	–	–	–	–	–	–
Cc1ncsc1-c1ccc(CNC(=O)[C@@H]2C[C@@H](O)CN2C(=O)[C@@H](NC(=O)COCCOCCNC(=O)C[C@@H]2N=C(c3ccc(Cl)cc3)c3c(sc(C)c3C)-n3c(C)nnc32)C(C)(C)C)cc1 [compound 5, (2S,4R)-1-((S)-2-(tert-Butyl)-14-((S)-4-(4-chlorophenyl)-2,3,9-trimethyl-6H-thieno[3,2-f][1,2,4]triazolo[4,3-a][1,4]diazepin-6-yl)-4,13-dioxo-6,9-dioxa-3,12-diazatetradecanoyl)-4-hydroxy-N-(4-(4-methylthiazol-5-yl)benzyl)pyrrolidine-2-carboxamide]	–	0.81 ± 0.04	–10.6 ± 0.06 kcal·mol^–1	–11.2 ± 0.04 kcal·mol^–1	0.8 ± 0.05	–9.34 ± 0.10 kcal·mol^–1	–5.72 ± 0.47 kcal·mol^–1	–3.61 ± 0.37 kcal·mol^–1	5.7	5.7	0.78 ± 0.16	0.76 ± 0.06	–10.4 ± 0.2 kcal·mol^–1	–5.36 ± 0.77 kcal·mol^–1	–5.05 ± 0.62 kcal·mol^–1
